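Five concentrations, 48 hours, 96-well plates. TGI is the concentration that stops growth completely.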
Assays:
Experiment in all cases: inhibition of tumour cell growth, NCI panel, 48 h
[1] = tested on: HOP-62 NSCLC
[2] = tested on: T-47D breast
[3] = tested on: SF-295 CNS
[4] = tested on: HOP-92 NSCLC
[5] = tested on: A498 renal
[6] = tested on: CCRF-CEM leukemia
[7] = tested on: OVCAR-8 ovarian
[8] = tested on: NCI-H522 lung
[9] = tested on: HT29 colon
[10] = tested on: HS 578T breast

Structure (SMILES) | TGI [1] [µM] | TGI [2] [µM] | TGI [3] [µM] | TGI [4] [µM] | TGI [5] [µM] | TGI [6] [µM] | TGI [7] [µM] | TGI [8] [µM] | TGI [9] [µM] | TGI [10] [µM]
CC(C)C(N)C(=O)NC(CCC(=O)NCCCCC(N)C(=O)NCCCNc1ccc([N+](=O)[O-])c2[nH]c3ccccc3c(=O)c12)C(N)=O (stereo not drawn) | > 100 | > 100 | > 100 | > 100 | > 100 | > 100 | > 100 | – | – | –
C[C@]12CC[C@@H]3c4ccc(O)cc4CC[C@H]3[C@@H]1C/C(=C\c1ccc(C#N)cc1)C2=O | > 100 | > 100 | > 100 | 89.1 | > 100 | > 100 | > 100 | 41.6 | 75.2 | –
c1ccc2[nH]c(CNc3ccc(C4C[Se]N=N4)cc3)nc2c1 (stereo not drawn) | > 100 | – | 92.3 | > 100 | > 100 | 82.5 | > 100 | > 100 | > 100 | –
O=C1/C(=C/c2cccc([N+](=O)[O-])c2)Sc2scc(-c3ccc([N+](=O)[O-])cc3)[n+]21 | 38.3 | > 100 | 53.6 | 72.3 | – | – | > 100 | – | 38.8 | –
CSc1nc2c(ncn2C2OC(CO)C(O)C(O)C2O)c(=O)[nH]1 (stereo not drawn) | > 100 | – | > 100 | > 100 | > 100 | > 100 | > 100 | > 100 | > 100 | –
O=[N+]([O-])/C(Cl)=C(\NCCN/C(C(Cl)=C(Cl)Cl)=C(/Cl)[N+](=O)[O-])C(Cl)=C(Cl)Cl | > 100 | > 100 | > 100 | 53.9 | > 100 | > 100 | > 100 | – | – | –
CC1(C)N=C2C(=O)c3c([nH]c4ccccc34)[C@]3(C)CCC1CC23 (stereo partly drawn) | > 6.25 | – | > 6.25 | > 6.25 | > 6.25 | > 6.25 | > 6.25 | > 6.25 | > 6.25 | > 6.25
c1ccc2c(c1)CCCC/C2=N/OCC1CO1 (stereo not drawn) | – | – | > 100 | 69.2 | > 100 | > 100 | > 100 | – | > 100 | –
Nc1ccccc1C(=O)C(Br)C(Br)c1ccc2c(c1)OCO2 (stereo not drawn) | 51 | – | > 100 | 39.5 | 60.7 | > 100 | 91.5 | 48.1 | 34.4 | –
COc1cccc2c1OCC1Cc3ccccc3OC21 (stereo not drawn) | > 100 | > 100 | > 100 | – | > 100 | > 100 | > 100 | > 100 | > 100 | –
O=C1C2=C(CCC2)Nc2cccc3ncn1c23 | – | – | > 100 | – | – | > 100 | > 100 | > 100 | – | –
O=C(NN1C(=O)CSC1c1cccc(F)c1)c1ccncc1 (stereo not drawn) | – | – | > 100 | – | > 100 | > 100 | > 100 | > 100 | > 100 | –
O=C1C=CC(=O)C(CNc2ccc(C(=O)OCc3ccccc3)cc2)=C1 | 33 | – | 34.5 | 3.8 | 23.5 | – | 16.8 | 2.87 | 31.8 | 55.4
CN(C)c1cccc2c1C(=O)C=CC21c2ccc(N(C)C)c3c(N(C)C)ccc(c23)C(c2ccccc2)C1c1ccccc1 (stereo not drawn) | 39.2 | – | 32.7 | 28.6 | 22 | 37.7 | 27.3 | 47.7 | 44.9 | 45.3
CC1(C)OC2COC3([C@@H]4OC(C)(C)O[C@@H]4CO)OC(C)(C)OC3C2O1 (stereo partly drawn) | > 100 | > 100 | > 100 | > 100 | > 100 | > 100 | > 100 | – | – | –
Cc1ccc2oc(=O)c(-c3ccccc3)nc2c1 | > 100 | – | > 100 | – | – | > 100 | > 100 | 48.7 | > 100 | –
O=[N+]([O-])c1cccc2c(N=Nc3ccc4ccccc4c3O)c(O)cc(S(=O)(=O)O)c12 | > 100 | – | > 100 | > 100 | – | 66.7 | > 100 | > 100 | > 100 | > 100
N#C/C(=C1\SC(N=Nc2ccc(Cl)cc2)C(=O)N1c1ccccc1)c1nc2ccccc2[nH]1 (stereo not drawn) | 35.4 | – | 58.7 | 51.9 | 58.4 | 47.4 | > 100 | 79.9 | > 100 | –
Cc1cccc(/C(Br)=C2/OC(=O)c3ccccc32)c1 | > 100 | – | > 100 | > 100 | > 100 | > 100 | > 100 | > 100 | > 100 | > 100
O=C1C2=Nc3ccccc3C(O)(C(=O)O)N2c2ccccc21 (stereo not drawn) | > 100 | – | 39.9 | > 100 | 80.9 | 94.9 | > 100 | 50.2 | 49.2 | > 100
COc1ccc(/C=N/n2c(C)nc3c(sc(=S)n3-c3ccccc3)c2=O)cc1 | > 100 | – | > 100 | > 100 | > 100 | 54.2 | > 100 | 46.4 | > 100 | –

Source: PubChem BioAssay (NCI)
